The values that follow come from PMC3812073, “Partial Deletion of Chromosome 8 β-defensin Cluster Confers Sperm Dysfunction and Infertility in Male Mice” (PLoS Genetics, 2013).

Experiment [1] concerns Pseudomonas aeruginosa O1 (PAO1). The experiment in a line: Antimicrobial killing of Pseudomonas aeruginosa PAO1 by synthetic mature β-defensin peptides. The experiment is classed as cell-based. The following applies: for bacterial killing after TCEP reduction: reduced peptide (TCEP), 50 µg/ml peptide, PAO1, 3 hours, compared with oxidised form. The text has this:
The DefbΔ9/DefbΔ9 mice homozygous for the deletion have no obvious gross phenotype compared to littermate controls after 8 generations of backcrossing to C57Bl/6. No change in size, weight or appearance is apparent, except mice carrying the mutant allele have paler tails by virtue of the Agouti transgene included in the MICER vector (data not shown). β-defensins are classically known as antimicrobial peptides, so we tested the mature peptides in vitro against a Gram-negative bacterium (Pseudomonas aeruginosa, PAO1). […] Despite deleting the expression of these antimicrobials from the homozygous mice, there is no indication that the mutant mice have an increased inflammatory profile under normal animal housing conditions. There is no elevation in levels of TNF-α or IL-6 or type I interferon in sera from mutant versus wild-type mice (Figure 1D).
Supplementary file pgen.1003826.s003.tif: Figure S3 Level of antimicrobial killing against Pseudomonas aeruginosa O1 (PAO1) by the reduced and oxidized peptides. β-defensins with the mature peptide sequences (as shown in Table 1) were purchased from Almac Sciences (Scotland) Limited in an oxidised form. They were tested for their ability to kill PAO1 in 3 hours at various concentrations of peptide. […] TCEP alone had no effect on bacterial survival (data not shown). […] (TIF) Click here for additional data file.

The subject of experiment [2] is wild-type cauda sperm. Description: A23187-induced acrosome reaction of wild-type sperm, Coomassie G250 stain. The experiment is classed as cell-based, mouse. The following applies: wild-type (+/+) sperm treated with A23187, T90 minutes, 157 of 293 sperm, untreated control 14%. As to the method:
(§1) We treated sperm from wild-type littermates (+/+) with A23187 to release calcium and induce AR, and examined their ultrastructure by TEM at the T90 minutes time point (Figure S4).
Cauda sperm were isolated in modified Tyrode's medium, fixed in 4% formalin for 15 mins. Sperm were spun down (1000× g 5 mins) then washed once in 0.1 M ammonium acetate (pH 9.0) and resuspended in a final volume of approximately 50 µl. An aliquot of 20 µl was smeared on glass slide, allowed to air dry then stained for 2 mins with a solution of 0.22% Coomassie blue G250 (wt/v) in 50% methanol (v/v) and 10% acetic acid (v/v). Slides were washed 3 times in distilled water, air-dried and mounted in glycerol. Acrosome integrity of at least 150 sperm per animal was assessed by the presence or absence of an intense blue stain on the anterior sperm head (mean ± SD; n = 3 pairs).

In experiment [3] the test system is wild-type cauda sperm. Description: TEM of microtubule structure in tails of A23187-treated wild-type sperm. Format: cell-based, mouse. The following applies: wild-type cauda sperm treated with A23187 (1 µM in the Figure S4 legend), T90 minutes, 101/195 tails in focus, control 3%. As to the method: as §1
Epididymides and decapsulated testis were fixed with 2% paraformaldehyde (PFA), 2.5% glutaraldehyde in 0.1M sodium cacodylate buffer + 0.04% CaCl2 for 30 mins at room temperature. The tissues were cut roughly into 1 mm cubes and further fixed overnight at 4°C. Fixed cells were rinsed in 0.1M sodium cacodylate buffer + 0.4% CaCl2, post-fixed in 1% osmium tetroxide (OsO4, Agar Scientific) for one hour, and dehydrated in sequential steps of acetone (25%, 50%, 75% and 100% twice) prior to impregnation in increasing concentrations (25%, 50%, 75%) of resin (TAAB Lab Equipment) in acetone followed by 100% resin for 3 times, placed in moulds and polymerised at 60°C for 24 hrs. Ultrathin sections of 70 nm were subsequently cut using a diamond knife on a Leica EM UC7 ultramicrotome. Sections were stretched with chloroform to eliminate compression and mounted on Pioloform filmed copper grids prior to staining with 1% aqueous uranyl acetate and lead citrate (Leica). They were viewed on a Philips CM100 Compustage (FEI) Transmission Electron Microscope with images collected using an AMT CCD camera (Deben). […]

In a further experiment the test system is sperm. The following applies: 10 µM A23187; cited from earlier work. From the text: We sought to understand why sperm from the DefbΔ9/DefbΔ9 have this precocious capacitation and increased spontaneous AR. Sperm require an increase in intracellular calcium, which causes hyperactivation and allows progression to the AR. Mice deleted for any of the components of the calcium CatSper (cation channels of sperm) channel are infertile due to their lack of ability to transport calcium into the cell, resulting in an inability to undergo capacitation, hyperactivation and prepare sperm for the AR [32]. Conversely, sperm exposed to a ten-fold increase in cauda epididymal calcium concent ...

No end group written: not given here.

On to “FDEKCSRVNGRCTAS-CLKNEELVALC-QKNLKCCVTVQPCGKSKSNQSDEGSGHMGTWG (disulfide) [Defb15, mature synthetic mouse β-defensin peptide]”, for which the “bacterial killing after TCEP reduction” value in experiment [1] is “unremarkable”.
For the molecule “HPGTFHVRIKCMPKMTAVFGDNCSFYSSMGDLCNNTKSVCCMVPVRMDNI (disulfide (positions not given here)) [Defb50, mature synthetic mouse β-defensin peptide, missing the second cysteine of the motif]”, in experiment [1] (PAO1, Figure S3), the “antimicrobial activity in either oxidised or reduced form” value is given as “active antimicrobials”. For the same molecule, the “antimicrobial activity, oxidised form” value in experiment [1] (oxidised peptide, PAO1, Figure S3) is “poor antimicrobial activity”. The “bacterial killing after TCEP reduction” value in experiment [1] was “improves”.
As for `O=C(O)CCP(CCC(=O)O)CCC(=O)O` [TCEP, Tris (2-carboxyethyl) phosphine], the “effect on bacterial survival” value in experiment [1] (TCEP alone, without peptide, data not shown) is on record as “no effect”.
Turning to `CNc1ccc2oc(C[C@H]3O[C@@]4(CC[C@H]3C)O[C@H]([C@H](C)C(=O)c3ccc[nH]3)[C@H](C)C[C@H]4C)nc2c1C(=O)O` [A23187], in the experiment with wild-type cauda sperm [2], the acrosome reacted sperm was determined as 53%. Also, in the experiment with wild-type cauda sperm [3], the “sperm with microtubule disruption (abnormal tail score)” value turned out to be 52%. Also, in the experiment with sperm, the acrosome reaction entry is recorded as “will undergo the AR” and the sperm motility result is given as “immotile”.
